Experimental data as given in ChEMBL document CHEMBL1123576.

Key:
[1] = biological target: T1, Opioid receptors; mu/kappa/delta (Homo sapiens) (UniProt P41145+P41143+P35372); experiment: The IC50 value of agonist (DADLE) in presence of antagonist (Compound 20 nM) divided by the control […] value with no antagonist in MVD (mouse vas deferens); assay type: functional; conditions: Cavia porcellus
[2] = biological target: T1, Opioid receptors; mu/kappa/delta (Homo sapiens); experiment: The IC50 value of agonist (ethylketazocine) in presence of antagonist (Compound 20 nM) divided by the control […] value with no antagonist in GPI (Guinea pig ileum); assay type: functional, tissue-based; conditions: Cavia porcellus, target entry is the homologue from another species
[3] = biological target: T1, Opioid receptors; mu/kappa/delta (Homo sapiens); experiment: The IC50 value of agonist (morphine) in presence of antagonist (Compound 20 nM) divided by the control […] value with no antagonist in GPI (Guinea pig ileum); assay type: functional, tissue-based; conditions: Cavia porcellus, target entry is the homologue from another species

T1 sequence (P35372 whole entry, looked up): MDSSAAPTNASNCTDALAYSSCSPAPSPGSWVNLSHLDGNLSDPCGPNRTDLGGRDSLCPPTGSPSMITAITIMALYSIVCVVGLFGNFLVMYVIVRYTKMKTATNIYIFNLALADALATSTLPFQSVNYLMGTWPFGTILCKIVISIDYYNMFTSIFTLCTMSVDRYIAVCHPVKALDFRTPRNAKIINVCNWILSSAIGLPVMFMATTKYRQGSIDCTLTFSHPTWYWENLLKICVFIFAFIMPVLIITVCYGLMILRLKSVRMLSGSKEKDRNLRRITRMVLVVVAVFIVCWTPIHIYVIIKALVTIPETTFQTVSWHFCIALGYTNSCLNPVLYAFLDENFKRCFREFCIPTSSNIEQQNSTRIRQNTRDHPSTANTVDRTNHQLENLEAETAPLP
T1 sequence (P41143 whole entry, looked up): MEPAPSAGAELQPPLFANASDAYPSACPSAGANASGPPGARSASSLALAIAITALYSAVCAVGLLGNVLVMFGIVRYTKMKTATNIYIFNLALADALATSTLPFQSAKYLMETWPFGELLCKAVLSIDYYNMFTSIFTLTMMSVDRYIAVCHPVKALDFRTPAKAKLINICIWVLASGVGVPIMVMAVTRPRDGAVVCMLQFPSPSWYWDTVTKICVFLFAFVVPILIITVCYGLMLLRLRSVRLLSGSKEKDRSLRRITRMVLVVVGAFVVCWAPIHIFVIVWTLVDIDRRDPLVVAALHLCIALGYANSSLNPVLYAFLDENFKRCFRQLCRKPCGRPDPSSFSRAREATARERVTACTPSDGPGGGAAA
T1 sequence (P41145 whole entry, looked up): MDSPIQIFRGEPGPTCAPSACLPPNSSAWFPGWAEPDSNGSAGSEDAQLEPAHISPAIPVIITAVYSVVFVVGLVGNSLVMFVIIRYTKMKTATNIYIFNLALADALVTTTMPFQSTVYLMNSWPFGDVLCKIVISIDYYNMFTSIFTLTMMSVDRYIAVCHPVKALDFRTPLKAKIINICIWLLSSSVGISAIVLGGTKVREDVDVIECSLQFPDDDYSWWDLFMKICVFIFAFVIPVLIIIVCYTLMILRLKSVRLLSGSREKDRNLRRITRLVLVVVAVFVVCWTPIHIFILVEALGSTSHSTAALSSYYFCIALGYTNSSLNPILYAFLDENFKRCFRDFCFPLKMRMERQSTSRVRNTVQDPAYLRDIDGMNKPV

In the case of `Cn1c2c(c3c1[C@@H]1Oc4c(O)ccc5c4[C@@]14CCN(CC1CC1)[C@H](C5)C4(O)C3)CC1(O)[C@H]3Cc4ccc(O)c5c4[C@@]1(CCN3CC1CC1)[C@H]2O5` (stereo partly specified), the Ratio [1] is reported as 4.5, the Ratio [2] is reported as 128 and the Ratio [3] is reported as 5.4.
For `Oc1ccc2c3c1O[C@@H]1c4[nH]c5c(c4CC4(O)[C@@H](C2)N(CC2CC2)CC[C@]314)CC1(O)[C@H]2Cc3ccc(O)c4c3[C@]1(CCN2CC1CC1)[C@H]5O4` (stereo partly specified), the Ratio [1] was 2, the Ratio [2] was 50.4 and the Ratio [3] was 1.6.
